This passage reports IC50 and inhibition results from ChEMBL document CHEMBL1136333, “A novel series of histone deacetylase inhibitors incorporating hetero aromatic ring systems as connection units” (Bioorg Med Chem Lett, 2003).

Experiment [1] has as its target Histone deacetylase (HDAC1 and HDAC2) (Homo sapiens, UniProt Q13547+Q92769). As to the kind of experiment: Inhibitory activity against histone deacetylase (HDAC1 and HDAC2) isolated from K562 erythroleukemia cells. Type of experiment: cell-based.
A further experiment can be described thus: cells. Type of experiment: functional. Particulars: Homo sapiens, MDA435.
Experiment [2] relates to HT-1080. As to the kind of experiment: Antiproliferative activity against human HT1080 fibrosarcoma cell line. Type of experiment: functional, cell-based.
Experiment [3] deals with HT-1080. In words: Antiproliferative activity against human HT1080 fibrosarcoma cell line at a dose of 50 uM. Type of experiment: functional.
A short description of experiment [4]: Antiproliferative activity against human MDA-435 breast carcinoma cell line at a dose of 50 uM. Type of experiment: functional.

A word on the IC50: it is the midpoint of a concentration-inhibition curve. A high value points to lower potency. In experiment [1], `CNC(=O)C(=O)CCCCCCc1cnc(-c2ccc(Br)cc2)o1` returned an IC50 of 0.03 µM.
For `O=C(CCCCCCc1ncc(-c2ccccc2)o1)NO`, the IC50 in “cells” came out at 2.2 µM; in experiment [1], 0.0098 µM; with HT-1080 [2], 8.41 µM.
The like results for `O=C(CCCCCCc1nc(-c2ccc(Br)cc2)cs1)NO` were, in that order, 8.11 µM, 0.0085 µM and 5.68 µM.
In experiment [1], `CNC(=O)C(=O)CCCCCCc1cnc(-c2ccccc2)o1` registered an IC50 of 0.021 µM.
The same measure, in the same setting: under `O=C(CCCCCCCc1ccccc1)NO` stands 0.56 µM.
Regarding `O=C(CCCCCCc1nc(-c2ccc(C(F)(F)F)cc2)cs1)NO`, the figures for the IC50 (in “cells”; in experiment [1]; with HT-1080 [2]) were 0.85 µM, 0.042 µM and 2.39 µM, respectively.
Regarding `CNC(=O)C(=O)CCCCCCc1ncc(-c2ccc(OC)cc2)o1`, the IC50 in experiment [1] amounted to 0.011 µM.
Turning to `O=C(CCCCCCc1nc(-c2ccc3ccccc3c2)cs1)NO`, the IC50 is 0.85 µM in the experiment “cells”, 0.0043 µM in experiment [1] and 2.39 µM with HT-1080 [2].
The like results for `O=C(CCCCCCc1cnc(-c2ccc(OC(F)(F)F)cc2)o1)NO` were, in that order, 20.4 µM, 0.089 µM and 5.14 µM.
With `O=C(CCCCCCNC(=O)c1ccccc1)NO`, the IC50 in experiment [1] worked out at 1.01 µM.
Regarding `O=C(CCCCCCc1cnc(-c2ccc(-c3ccccc3)cc2)o1)NO`, the IC50 in “cells” turned out to be 98.7 µM; in experiment [1], 0.012 µM; in the experiment on HT-1080 [2], 15.3 µM.
Consider `CNC(=O)C(=O)CCCCCCc1cnc(-c2ccccc2)s1`, for which the IC50 in experiment [1] turned out to be 0.047 µM.
The term inhibition denotes the share of the control response that was lost under treatment. A high value points to strong suppression. With `O=C(CCCCCCc1cnc(-c2ccc(F)cc2)o1)NO`, the IC50 in “cells” stood at 7.94 µM; in experiment [1], 0.023 µM. For the same compound, in the experiment on HT-1080 [3], at 50 µM the inhibition was 76%.
For `O=C(CCCCCCc1cnc(-c2ccc(Br)cc2)o1)NO`, the inhibition at 50 µM in experiment [4] was 97%. The IC50 in experiment [1] was found to be 0.0044 µM; in the experiment with HT-1080 [2] it was 27 µM.
In the case of `O=C(CCCCCCc1ncc(-c2ccc(Br)cc2)o1)NO`, the values for the IC50 (in “cells”; in experiment [1]; in the experiment on HT-1080 [2]) were 6.7 µM, 0.0027 µM and 7.7 µM, respectively.
The like results for `COc1cccc(OC)c1-c1csc(CCCCCCC(=O)NO)n1` were, in that order, 2.91 µM, 0.0043 µM and 2 µM.
As to `O=C(CCCCCCc1cnc(-c2ccccc2)o1)NO`, the inhibition at 50 µM in experiment [4] is 6.12%; in the experiment on HT-1080 [3], 23%. For the same compound, in experiment [1], the IC50 is 0.013 µM.
The compound `O=C(CCCCCCOc1ccccc1)NO` yielded an IC50 in experiment [1] of 0.33 µM.
Take `O=C(CCCCCCc1nc(-c2ccccc2)cs1)NO`: at 50 µM the inhibition in experiment [4] was 99.7%. Moreover, the IC50 in experiment [1] amounted to 0.019 µM; in the experiment with HT-1080 [2], 5.07 µM.
`O=C(CCCCCCc1ccc(-c2ccccc2)cc1)NO` had an IC50 in experiment [1] of 0.058 µM.
As for `COc1ccc(-c2csc(CCCCCCC(=O)NO)n2)cc1`, the IC50 was found to be 2.97 µM in “cells”, 0.0025 µM in experiment [1] and 3.63 µM in the experiment with HT-1080 [2].
The like results for `O=C(CCCCCCc1ncc(-c2ccc(-c3ccc(Cl)cc3)cc2)o1)NO` were, in that order, 0.95 µM, 0.0068 µM and 0.66 µM.
Turning to `O=C(CCCCCCc1nc(-c2cccc(Br)c2)cs1)NO`, 50 µM produced 98.6% inhibition in experiment [4]. For the same compound, the IC50 is 0.0058 µM in experiment [1] and 10.1 µM in the experiment on HT-1080 [2].
Turning to `O=C(CCCCCCc1nc(-c2ccc(-c3ccccc3)cc2)cs1)NO`, the IC50 turned out to be 1.95 µM in “cells”, 0.011 µM in experiment [1] and 1.32 µM in the experiment with HT-1080 [2].
The like results for `COc1ccc(-c2cnc(CCCCCCC(=O)NO)o2)cc1` were, in that order, 2.52 µM, 0.0021 µM and 0.31 µM.
Take `O=C(CCCCCCc1nc(-c2ccc(OC(F)(F)F)cc2)cs1)NO`: the IC50 stood at 2.04 µM in “cells” and 0.074 µM in experiment [1]. This compound had an inhibition at 50 µM in the experiment on HT-1080 [3] of 100%.
